In assay [1] the test system is transcription factors in HeLa cells. The assay can be described thus: Transcription factor plate array assay. Format: cell-based. Conditions: 100 nM, 6 hours. The method, then:
The consensus sequences of each of these transcription factors corresponds to the DNA footprinting pattern observed for 16.
The transcription factor plate array assay kit was obtained from Signosis Inc (USA). Briefly, 2×10^6 HeLa cells were treated with 100 nM compound 16 and incubated for 6 hours before extracting the nuclear protein and carrying out the TF plate array assay. The assay was carried out following the manufacturer's protocol. In the case of each transcription factor, the RLU value obtained for the cells treated with 16 was deducted from the respective values obtained for the untreated cells to obtain the differences in TF activation/inhibition.

In assay [2] the test system is DS3 DNA fragment. The assay can be described thus: DNA footprinting, DS3 DNA fragment. Format: binding. The method, then: The DNA sequence selectivity profile of the molecules was investigated using a modification of the previously established DNA footprinting assay. Following an overnight incubation of the ligand-DNA complexes, the mixture was mixed with strand separation buffer containing 10 mM EDTA, 10 mM NaOH, 0.1% bromophenol blue, 80% formamide and incubated at 100° C. for 3 min. The mixture was then immediately cooled on ice and run on an 8% denaturing gel.
The preparation of the DS3 DNA fragment (FIG. 5) and the “D” DNA fragment (FIG. 6) has been previously described. Briefly, the sequence which had been cloned into the BamHI site of pUC18 was obtained by cutting with HindIII and EcoRI. Radiolabelled DNA fragments were prepared by filling in the 3′-end of the HindIII site with [α-^32P]dATP using Klenow DNA polymerase (exo-).
The radiolabelled DNA fragment was separated from the remainder of the plasmid DNA on a 6% non-denaturing polyacrylamide gel. The gel (20 cm long, 0.3 mm thick) was run at 400 V in 1×TBE running buffer for about 1-2 h, until the bromophenol blue had run most of the way down the gel. The glass plates were separated and the position of the labelled DNA fragment was established by short (1 min) exposure to an X-ray film. The relevant band was then cut from the gel and the radiolabelled DNA eluted by adding 300 μL 10 mM Tris-HCl, pH 7.5 containing 0.1 mM EDTA and gently agitating overnight at room temperature. The eluted DNA was finally precipitated with ethanol and re-suspended in a suitable volume of 10 mM Tris-HCl, pH 7.5 containing 0.1 mM EDTA buffer so as to give at least 10 counts per second/μL on a hand-held Geiger counter. […]
Footprinting reactions were performed as previously described using the DNA fragments DS3, which contains tracts of AT/GC bases; and using the “D” DNA fragments which represents a random DNA sequence. […] After gel purification, the radiolabelled DNA was dissolved in 10 mM Tris-HCl pH 7.5 containing 0.1 mM EDTA, at a concentration of about 10 c.p.s per μL as determined on a hand held Geiger counter. […]

With `COc1cc2c(cc1OCCCC(=O)Nc1cc(C(=O)Nc3ccc(-c4cc(C(=O)Nc5ccc(N)cc5)n(C)c4)cc3)n(C)c1)NC[C@@H]1CCCCN1C2=O` [Compound 16, (S)—N-(4-Aminophenyl)-4-(4-(4-(4-((2-methoxy-12-oxo-5,6,6a,7,8,9,10,12-octahydrobenzo[e]pyrido[1,2-a][1,4]diazepin-3-yl)oxy)butanamido)-1-methyl-1H-pyrrole-2-carboxamido)phenyl)-1-methyl-1H-pyrrole-2-carboxamide], the “major transcription factors down-regulated” value in assay [1] was “GR/PR, CDP, ATG2 and Oct-4”. The “DNA binding pattern (footprint)” value in assay [2] (DS3 DNA sequence) is recorded as “predominantly target AT rich regions”. The “DNA-binding site sequence (X any base, W A or T)” value in assay [2] (from DNA footprinting, fragment not stated) was “XXXXWWW”.

The record behind these values is patent US20210371413A1, “POLYCYCLIC AMIDES AS CYTOTOXIC AGENTS” (FEMTOGENIX LIMITED, priority 2018, published 2021).
